According to patent US7691392B2 (Kosan Biosciences Incorporated, priority 2005, dated 2010):

Legend:
[1] = patients treated at 56 mg/m^2 17-AAG; cited from earlier work
[2] = Plasma pharmacokinetics of 17-AAG and 17-AG in the open-label dose escalating trial in MM patients
Protocol: The total number of PK samples collected was approximately 110 mL of whole blood (7-8 tablespoons). If a patient experienced a potentially drug-related SAE, additional PK samples were collected. Blood was drawn from the contralateral arm to the infusion site using an indwelling catheter to avoid multiple needle sticks. […] The blood tube was inverted several times, and the tube placed in wet ice immediately pending separation of the plasma. If a catheter was used for blood collection, the fluid in the catheter was completely withdrawn prior to each sample collection and discarded. Plasma samples were kept on wet ice during collection and centrifugation. Plasma samples were split into two cryovials prior to freezing at −70° C.
The PK analysis was performed as follows. […] PK parameters were calculated on plasma concentration time data by non-compartmental analysis using Kinetica version 4.3 software (Innaphase, Champs sur Marne, France). AUC was calculated by the mixed log-linear rule: the linear rule was applied to the range where concentration was ascending and the log-linear rule was applied to the range where the concentration was descending. AUClast is the area from t=0 to tlast, the last sampling time. AUCextra is the extrapolated area from AUClast to infinity and AUCtotal=AUClast+AUCextra and is also named AUC0-∞ area under the concentration-time curve from time zero to infinity. The terminal rate constant λz was calculated on at least three points on the elimination curve with values greater than the lower limit of quantitation. […] Table 5 lists the areas, Cmax, and half-life for the metabolite 17-AG (mean±one standard deviation). […] There was no dose dependency for half-life, clearance or distributive volumes for these dose administrations.

[3] = Cellular assays, relative potency of 17-AAG and 17-AG; assay type: cell-based; details: 17-AAG versus 17-AG

Q: Which results are given for `CO[C@H]1/C=C\C=C(/C)C(=O)NC2=CC(=O)C(N)=C(C[C@@H](C)C[C@H](OC)[C@H](O)[C@@H](C)/C=C(\C)[C@@H]1OC(N)=O)C2=O` [17-AG, 17-aminogeldanamycin]?
A: Vz [1]: 203 L/m^2; clearance [1]: 30.8 L/h/m^2; time post infusion from which plasma level of 17-AG exceeded the parent drug ([2]; 220 mg/m^2 cohort): approximately 7 hours; change of AUCtotal between Day 1 and Day 11 ([2]; 17 patients, first vs fourth infusion): no pattern of increase or decrease; dose proportionality of Cmax ([2]; 150-340 mg/m^2 17-AAG): did not increased in a dose proportional manner; time post infusion from which plasma level of 17-AG exceeded the parent drug ([2]; 150 and 275 mg/m^2 cohorts): approximately 3 hours; half-life ([2]; human, plasma, intravenous): 4.6 to 5.4 h; relative potency in cellular assays [3]: equipotent
